Key:
[1] = tested on: middle instar larvae webbing clothes moth (Tineola bisselliella); experiment: Test Example 1 / Comparative Example 1: pest feed harm on treated wool muslin, infested after drying; format: in vivo; parameters: key: “+++” for a heavy level of the pest feed harm; “++” for a normal level of the pest feed harm; “+” for a minor level of the pest feed harm; “−” for no visual pest feed harm; conditions: 10 larvae, 7 days of infestation at 25±2° C., repeats 1-5
Source text: One-tenth (0.1) milliliter of acetone solutions composed of 0.1% w/v and 0.3% w/v of 1-methyl-2-nitro-3-[(3-tetrahydrofuryl)methyl]guanidine (hereinafter referred to as the present compound), respectively, was eye-dropped with a pipette onto wool muslins.
Each of the resulting wool muslins was then allowed to dry and was placed on the bottom portion of a plastic container.
Ten (10) middle instar larvae webbing clothes moth (Tineola bisselliella) were then placed, respectively, into the plastic container, and a nylon net was set on the top portion of the plastic container to cover the opening thereof. After 7 days of infestation under 25±2° C., the pest feed harm on the wool muslins were examined. The standards to the pest feed harm were “+++” for a heavy level of the pest feed harm, “++” for a normal level of the pest feed harm, “+” for a minor level of the pest feed harm and “−” for no visual pest feed harm. The tests were repeated 5 times.
(§1) Further, as a control, a test utilizing a wool muslin to which no composition was applied was similarly conducted. The control was repeated twice.
One-tenth (0.1) milliliter of acetone solutions composed of 0.1% w/v and 0.3% w/v of (E)-1-ethynyl-2-methyl-pent-2-enyl-(1R)-cis,trans-chrysanthemate (hereinafter referred to as comparative compound 1), respectively, was eye-dropped with a pipette onto wool muslins.
Ten (10) middle instar larvae webbing clothes moth (Tineola bisselliella) were then placed, respectively, into the plastic container, and a nylon net was set on the top portion of the plastic container to cover the opening thereof. After 7 days of infestation under 25±2° C., the pest feed harm on the wool muslins were examined. The standards to the pest feed harm were “+++” for a heavy level of the pest feed harm, “++” for a normal level of the pest feed harm, “+” for a minor level of the pest feed harm and “−” for no visual pest feed harm. The comparative experiments were repeated 5 times.

[2] = tested on: middle instar larvae webbing clothes moth (Tineola bisselliella); experiment: Test Example 2 / Comparative Example 2: pest feed harm on treated wool muslin preserved for 2 weeks before infestation; format: in vivo; parameters: key: “+++” for a heavy level of the pest feed harm; “++” for a normal level of the pest feed harm; “+” for a minor level of the pest feed harm; “−” for no visual feed harm; conditions: preserved at 25±2° C. for 2 weeks before test, 10 larvae, 7 days of infestation, repeats 1-5
Procedure: One-tenth (0.1) milliliter of acetone solutions composed of 0.1% w/v and 0.3% w/v of the present compound, respectively, was eye-dropped with a pipette onto wool muslins.
Each of the resulting wool muslins was then preserved at 25±2° C. for 2 weeks. After the 2 weeks, each of the wool muslins was placed on the bottom portion of a plastic container.
Ten (10) middle instar larvae webbing clothes moth (Tineola bisselliella) were then placed, respectively, into the plastic container and a nylon net was set on the top portion of the plastic container to cover the opening thereof. After 7 days of infestation under 25±2° C., the pest feed harm on the wool muslins were examined. The standards to the pest feed harm were “+++” for a heavy level of the pest feed harm, “++” for a normal level of the pest feed harm, “+” for a minor level of the pest feed harm and “−” for no visual feed harm. The tests were repeated 5 times.
as §1
One-tenth (0.1) milliliter of acetone solutions composed of 0.1% w/v and 0.3% w/v of Comparative compound 1, respectively, was eye-dropped with a pipette onto wool muslins.
Ten (10) middle instar larvae webbing clothes moth (Tineola bisselliella) were then placed, respectively, into the plastic container and a nylon net was set on the top portion of the plastic container to cover the opening thereof. After 7 days of infestation under 25±2° C., the pest feed harm on the wool muslins were examined. The standards to the pest feed harm were “+++” for a heavy level of the pest feed harm, “++” for a normal level of the pest feed harm, “+” for a minor level of the pest feed harm and “−” for no visual pest feed harm. The comparative experiments were repeated 5 times.

[3] = application amount 25 mg/m^2 on wool muslin
[4] = application amount 75 mg/m^2 on wool muslin

| Compound | Pest feed harm [1, 3] | Pest feed harm [1, 4] | Pest feed harm [2, 3] | Pest feed harm [2, 4] |
| --- | --- | --- | --- | --- |
| C#CC(OC(=O)C1C(C=C(C)C)C1(C)C)/C(C)=C/CC (mixture of isomers) [Comparative compound 1, (E)-1-ethynyl-2-methyl-pent-2-enyl-(1R)-cis,trans-chrysanthemate] | + + and + | + and + + | + + + | + + + |
| CNC(=N[N+](=O)[O-])NCC1CCOC1 (centres unmarked) [Present compound, 1-methyl-2-nitro-3-[(3-tetrahydrofuryl)methyl]guanidine] | − | − | − | − |
